Where a name gives a salt, the structure may show the parent alone.
System: clonic seizures caused by pentylenetetrazole
Assay: Protection against clonic seizures caused by pentylenetetrazole in rats (oral)
Type: in vivo
Conditions: Rattus norvegicus, rats (at least 5 per group), 2% starch vehicle, pentylenetetrazole 21 to 23 mg./kg. intravenously at estimated time of peak effect, protection of 50% of animals, read-out: MEDIAN EFFECTIVE ORAL DOSE ED50
Description: The anti-anxiety properties of the compounds of the present invention have been established in a test which indicates anxiolytic activity by a measure of protection from convulsions resulting from the administration of pentylenetetrazole. Graded dose levels of the compounds of this invention are administered orally, in a 2% starch vehicle, to groups of at least 5 rats. At the estimated time of peak effect, the rats are treated intravenously with pentylenetetrazole at a dose of 21 to 23 mg./kg. of body weight. This dose is estimated to cause clonic seizures in 99% of unprotected rats. The effective dose of the test compound for protection of 50% of the animals is calculated by the method of D. H. Finney in Statistical Methods in Biological Assay, Second Edition, Hafner Publishing Co., New York, 1964, pp. 456- 457. Representative results are given in the table which follows in comparison with Librium (chlordiazepoxide) or Valium (diazepam), all of which were tested in exactly the same manner. It has been reported [R. T. Hill and D. H. Tedeschi, "Animal Testing and Screening Procedures in Evaluating Psychotropic Drugs" in An Introduction to Psychopharmacology, Eds. R. R. Rech and K. E. Moore, Raven Press, New York, pp. 237-288 (1971)] that there is a high degree of correlation between antagonism of pentylenetetrazole seizures in rats and antianxiety effects in higher warm-blooded animals.

CN1C(=O)[C@@H]2CCCN2Cc2cc(Cl)ccc21 [Dextro 7-chloro-1,2,3,5,10,11a-hexahydro-10-methyl-11H-pyrrolo[2,1-c][1,4]benzodiazepin-11-one hydrochloride]
ED50: 80 mg/kg

CNC1=Nc2ccc(Cl)cc2C(c2ccccc2)=[N+]([O-])C1 [Librium (chlordiazepoxide), chlordiazepoxide, reference compound]
ED50: 2.5 mg/kg

CN1C(=O)C2CCCN2Cc2ccccc21 (racemic) [Racemic 1,2,3,5,10,11a-hexahydro-10-methyl-11H-pyrrolo[2,1-c][1,4]benzodiazepin-11-one hydrochloride]
ED50: 66 mg/kg

CN1C(=O)CN=C(c2ccccc2)c2cc(Cl)ccc21 [Valium (diazepam), diazepam, reference compound]
ED50: 1.8 mg/kg

CN1C(=O)C2CCCN2Cc2cc(Cl)ccc21 (racemic) [Racemic 7-chloro-1,2,3,5,10,11a-hexahydro-10-methyl-11H-pyrrolo[2,1-c][1,4]benzodiazepin-11-one hydrochloride]
ED50: 91 mg/kg

Cc1ccc2c(c1)CN1CCC[C@H]1C(=O)N2C [Dextro 7,10-dimethyl-1,2,3,5,10,11a-hexahydro-11H-pyrrolo[2,1-c][1,4]benzodiazepin-11-one hydrochloride]
ED50: 32 mg/kg

CN1C(=O)[C@@H]2CCCN2Cc2ccccc21 [Dextro 1,2,3,5,10,11a-hexahydro-10-methyl-11H-pyrrolo[2,1-c][1,4]-benzodiazepin-11-one hydrochloride]
ED50: 15 mg/kg

From patent US3947408A, “Pyrrolo-benzodiazepines, method of preparation and method of use” (American Cyanamid Company, priority 1974, dated 1976)
